Data as given in patent US7348425B2, “Inhibitors of HCV replication” (Bristol-Myers Squibb Company, priority 2004, dated 2008).
Where two headings read alike, the source gives them in different places.

What was measured:
[1] = target: T1, HCV NS5B RdRp genotype 1b (Hepatitis C virus genotype 1b, UniProt Q9WMX2); experiment: Modified HCV NS5B RdRp enzyme assay (with preincubation); type: biochemical; conditions: modified method (with preincubation)
T1 construct: The protein was expressed with an 18 amino acid C-terminal truncation to enhance the solubility; made in house; host or cells: E. coli BL21 (DE3), pET21a
T1 sequence (Q9WMX2 2420-2992): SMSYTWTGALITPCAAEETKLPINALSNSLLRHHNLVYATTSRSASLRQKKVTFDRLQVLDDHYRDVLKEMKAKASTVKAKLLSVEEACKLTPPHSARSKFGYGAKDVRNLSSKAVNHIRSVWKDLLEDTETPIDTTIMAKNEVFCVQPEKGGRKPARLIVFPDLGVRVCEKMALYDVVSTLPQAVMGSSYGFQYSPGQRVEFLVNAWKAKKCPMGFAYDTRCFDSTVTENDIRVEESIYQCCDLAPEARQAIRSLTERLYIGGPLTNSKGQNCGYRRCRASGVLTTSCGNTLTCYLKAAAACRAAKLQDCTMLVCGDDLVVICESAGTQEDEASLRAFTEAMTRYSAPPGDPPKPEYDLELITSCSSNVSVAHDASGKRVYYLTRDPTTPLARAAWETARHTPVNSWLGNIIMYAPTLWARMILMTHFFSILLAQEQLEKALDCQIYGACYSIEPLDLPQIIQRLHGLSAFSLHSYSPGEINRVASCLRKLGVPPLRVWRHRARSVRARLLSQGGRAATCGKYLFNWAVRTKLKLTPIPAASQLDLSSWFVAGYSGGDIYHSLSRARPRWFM
Outline: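 C-terminally truncated (Δ18) genotype 1b NS5B from E. coli was preincubated (14 nM) with compound, then reaction started with polyA template (0.2 nM), ³H-UTP (0.29 μM) and dT12 primer (20 nM) precaptured on SPA beads. Reaction ran 4 h at 30 °C in pH 7.5 Hepes buffer with 2% DMSO. IC50 came from seven concentrations.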

[2] = test system: HCV replicon; experiment: HCV replicon FRET assay; type: cell-based; conditions: Hepatitis C virus
Outline: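 Replicon cells (± Renilla luciferase reporter) incubated with titrated compound at 37 °C; NS3 protease activity read by FRET peptide cleavage (20 uM EDANS/DABCYL substrate, 340/490 nm kinetic) or luciferase.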

SMILES: CN(C)S(=O)(=O)NC(=O)c1ccc2c(C3CCCCC3)c3n(c2c1)CC(=O)Nc1ccccc1-3
- IC50 [1]: 20 to 1000 nM
- EC50 ([2]; FRET assay, read-out: EC50): 10 to 1000 nM

SMILES: COC(=O)c1ccc2c(C3CCCCC3)c3n(c2c1)CC(C(=O)N1CCOCC1)=Cc1ccncc1-3
- IC50 [1]: > 1000 nM
- EC50 ([2]; FRET assay, read-out: EC50): 1000 to 10000 nM

SMILES: O=C(O)c1ccc2c(C3CCCCC3)c3n(c2c1)CC(C(=O)N1CCOCC1)=Cc1cccnc1-3
- IC50 [1]: 20 to 1000 nM
- EC50 ([2]; FRET assay, read-out: EC50): 10 to 1000 nM

SMILES: O=C(NS(=O)(=O)C1CC1)c1ccc2c(C3CCCCC3)c3n(c2c1)CC(C(=O)N1CCOCC1)=Cc1ccccc1-3
- IC50 [1]: 20 to 1000 nM
- EC50 ([2]; FRET assay, read-out: EC50): 10 to 1000 nM

SMILES: CS(=O)(=O)NC(=O)c1ccc2c(C3CCCCC3)c3n(c2c1)CC(C(=O)N1CCOCC1)=Cc1ccccc1-3
- IC50 [1]: 20 to 1000 nM
- EC50 ([2]; FRET assay, read-out: EC50): 10 to 1000 nM

SMILES: O=C(O)c1ccc2c(C3CCCCC3)c3n(c2c1)CC(C(=O)N1CCOCC1)Cc1cccnc1-3 (stereo not shown)
- IC50 [1]: 20 to 1000 nM
- EC50 ([2]; FRET assay, read-out: EC50): 1000 to 10000 nM

SMILES: CN(C)S(=O)(=O)NC(=O)c1ccc2c(C3CCCCC3)c3n(c2c1)CC(C(=O)N1CCOCC1)=Cc1cccnc1-3
- IC50 [1]: 20 to 1000 nM
- EC50 ([2]; FRET assay, read-out: EC50): 10 to 1000 nM

SMILES: COC(=O)c1ccc2c(C3CCCCC3)c3n(c2c1)CC(N1CCOCC1)Cc1ccccc1-3 (stereo not shown)
- IC50 [1]: > 1000 nM
- EC50 ([2]; FRET assay, read-out: EC50): 10 to 1000 nM

SMILES: O=C(O)c1ccc2c(C3CCCCC3)c3n(c2c1)CC(N1CCOCC1)Cc1ccccc1-3 (stereo not shown)
- IC50 [1]: 20 to 1000 nM
- EC50 ([2]; FRET assay, read-out: EC50): 10 to 1000 nM

SMILES: COC(=O)c1ccc2c(C3CCCCC3)c3n(c2c1)CC(C(=O)O)=Cc1cc(OC)ccc1-3
- IC50 [1]: 20 to 1000 nM
- EC50 ([2]; FRET assay, read-out: EC50): 1000 to 10000 nM

SMILES: COC(=O)c1ccc2c(C3CCCCC3)c3n(c2c1)CC(C(=O)N1CCOCC1)=Cc1cc(OC)ccc1-3
- IC50 [1]: 20 to 1000 nM
- EC50 ([2]; FRET assay, read-out: EC50): 10 to 1000 nM

SMILES: COc1ccc2c(c1)C=C(C(=O)N1CCOCC1)Cn1c-2c(C2CCCCC2)c2ccc(C(=O)O)cc21
- IC50 [1]: 20 to 1000 nM
- EC50 ([2]; FRET assay, read-out: EC50): 10 to 1000 nM

SMILES: CN(C)S(=O)(=O)NC(=O)c1ccc2c(C3CCCCC3)c3n(c2c1)CC(C(=O)N1CCOCC1)Cc1cccnc1-3 (stereo not shown)
- IC50 [1]: 20 to 1000 nM
- EC50 ([2]; FRET assay, read-out: EC50): 10 to 1000 nM

SMILES: O=C(O)c1ccc2c(C3CCCCC3)c3n(c2c1)CC(C(=O)N1CCOCC1)=Cc1ccncc1-3
- IC50 [1]: 20 to 1000 nM
- EC50 ([2]; FRET assay, read-out: EC50): 1000 to 10000 nM

SMILES: O=C(O)c1ccc2c(C3CCCCC3)c3n(c2c1)C=C(C(=O)N1CCOCC1)Cc1ccncc1-3
- IC50 [1]: > 1000 nM
- EC50 ([2]; FRET assay, read-out: EC50): > 10000 nM

SMILES: COc1ccc2c(c1)C=C(C(=O)N1CCOCC1)Cn1c-2c(C2CCCCC2)c2ccc(C(=O)NS(=O)(=O)N(C)C)cc21
- IC50 [1]: 20 to 1000 nM
- EC50 [2]: 10 to 1000 nM

SMILES: CC(C)S(=O)(=O)NC(=O)c1ccc2c(C3CCCCC3)c3n(c2c1)CC(C(=O)N1CCOCC1)=Cc1ccccc1-3
- IC50 [1]: 20 to 1000 nM
- EC50 ([2]; FRET assay, read-out: EC50): 10 to 1000 nM

SMILES: CCS(=O)(=O)NC(=O)c1ccc2c(C3CCCCC3)c3n(c2c1)CC(C(=O)N1CCOCC1)=Cc1ccccc1-3
- IC50 [1]: 20 to 1000 nM
- EC50 ([2]; FRET assay, read-out: EC50): 10 to 1000 nM

SMILES: O=C(NS(=O)(=O)N1CCCC1)c1ccc2c(C3CCCCC3)c3n(c2c1)CC(C(=O)N1CCOCC1)=Cc1ccccc1-3
- IC50 [1]: 20 to 1000 nM
- EC50 ([2]; FRET assay, read-out: EC50): 10 to 1000 nM

SMILES: CC(C)(C)S(=O)(=O)NC(=O)c1ccc2c(C3CCCCC3)c3n(c2c1)CC(C(=O)N1CCOCC1)=Cc1ccccc1-3
- IC50 [1]: 20 to 1000 nM
- EC50 ([2]; FRET assay, read-out: EC50): 10 to 1000 nM

SMILES: CCS(=O)(=O)NC(=O)c1ccc2c(C3CCCCC3)c3n(c2c1)CC(C(=O)N1CCOCC1)Cc1ccccc1-3 (stereo not shown)
- IC50 [1]: 20 to 1000 nM
- EC50 ([2]; FRET assay, read-out: EC50): 10 to 1000 nM

SMILES: CC(C)S(=O)(=O)NC(=O)c1ccc2c(C3CCCCC3)c3n(c2c1)CC(C(=O)N1CCOCC1)Cc1ccccc1-3 (stereo not shown)
- IC50 [1]: 20 to 1000 nM
- EC50 ([2]; FRET assay, read-out: EC50): 10 to 1000 nM

SMILES: COc1ccc2c(c1)CC(C(=O)N1CCOCC1)Cn1c-2c(C2CCCCC2)c2ccc(C(=O)O)cc21 (stereo not shown)
- IC50 [1]: 20 to 1000 nM
- EC50 ([2]; FRET assay, read-out: EC50): 10 to 1000 nM

SMILES: O=C(NS(=O)(=O)c1ccccc1)c1ccc2c(C3CCCCC3)c3n(c2c1)CC(C(=O)N1CCOCC1)Cc1ccccc1-3 (stereo not shown)
- IC50 [1]: 20 to 1000 nM
- EC50 ([2]; FRET assay, read-out: EC50): 10 to 1000 nM

SMILES: COC(=O)C1=Cc2ccccc2-c2c(C3CCCCC3)c3ccc(C(=O)NS(=O)(=O)N(C)C)cc3n2C1
- IC50 [1]: 20 to 1000 nM
- EC50 ([2]; FRET assay, read-out: EC50): 10 to 1000 nM

SMILES: COC(=O)c1ccc2c(C3CCCCC3)c3n(c2c1)CC(C(=O)N1CCCOCC1)=Cc1ccccc1-3
- IC50 [1]: > 1000 nM
- EC50 ([2]; FRET assay, read-out: EC50): 1000 to 10000 nM

SMILES: O=C(O)c1ccc2c(C3CCCCC3)c3n(c2c1)CC(C(=O)N1CCCOCC1)=Cc1ccccc1-3
- IC50 [1]: 20 to 1000 nM
- EC50 ([2]; FRET assay, read-out: EC50): 10 to 1000 nM

SMILES: CN(C)S(=O)(=O)NC(=O)c1ccc2c(C3CCCCC3)c3n(c2c1)CC(C(=O)O)=Cc1ccccc1-3
- IC50 [1]: 20 to 1000 nM
- EC50 ([2]; FRET assay, read-out: EC50): > 10000 nM

SMILES: O=C(O)/C=C/c1ccc(NC(=O)C2(NC(=O)c3ccc4c(C5CCCCC5)c5n(c4c3)CCNc3ccccc3-5)CCCC2)cc1
- IC50 [1]: 20 to 1000 nM
- EC50 ([2]; FRET assay, read-out: EC50): 10 to 1000 nM

SMILES: O=C(O)c1ccc2c(C3CCCCC3)c3n(c2c1)CNc1ccccc1-3
- IC50 [1]: 20 to 1000 nM
- EC50 ([2]; FRET assay, read-out: EC50): 10 to 1000 nM

SMILES: COC(=O)c1ccc2c(C3CCCCC3)c3n(c2c1)CNc1ccccc1-3
- IC50 [1]: > 1000 nM
- EC50 ([2]; FRET assay, read-out: EC50): 10 to 1000 nM

SMILES: COC(=O)c1ccc2c(C3CCCCC3)c3n(c2c1)CCNc1ccccc1-3
- IC50 [1]: > 1000 nM
- EC50 ([2]; FRET assay, read-out: EC50): 10 to 1000 nM
